Assay results as given in PMC4850295, “Using a Genetically Encoded Sensor to Identify Inhibitors of Toxoplasma gondii Ca^2+ Signaling” (The Journal of Biological Chemistry, 2016).
“And” between values parts separate entries of the source, which are not always exact repeats. Equal entries are not always repeated. Where two headings read alike, the source gives them in different places.

Tested on: T1, GCaMP5-expressing T. gondii
T1 construct: whole extracellular parasites expressing GCaMP5 Ca2+ sensor
Set-up: species or system GCaMP5-expressing Toxoplasma gondii, extracellular; GCaMP5 fluorescence (cytosolic Ca2+) after 100 uM zaprinast in compound-pretreated extracellular parasites, background-subtracted, relative to zaprinast alone
Conditions: 100 uM zaprinast stimulation, 10 min pretreatment, mean of two replicates, 0.23 h
Experimental: GCaMP5-expressing parasites were suspended in Ringer's solution at 4 × 10^7 parasites/ml, and 50 μl of parasites were applied to each well of a 96-well plate (Costar, catalog no. 3631). […] Parasites were then treated with 100 μM zaprinast or 0.1% DMSO as a vehicle control and incubated at 37 °C with 5% CO2 for an additional 4 min before measuring fluorescence with excitation and emission wavelengths of 485 and 525 nm, respectively, on a SpectraMax M3 (Molecular Devices). Basal fluorescence, measured from untreated parasites, was subtracted from all values, and results were expressed as -fold change from parasites treated only with zaprinast. Z′ factors were determined from (i) parasites treated with zaprinast versus untreated parasites and (ii) parasites treated with a final concentration of 1 μM Cpd2 or a vehicle control followed by zaprinast, using the formula, Z′ = 1 − 3(σp + σn)/(|μp − μn|), where σp and σn indicate S.D. values of positive and negative controls, and μp and μn indicate the means of positive and negative controls, respectively. […] We predicted that the zaprinast response measured in GCaMP5-expressing parasites could form the basis for a phenotypic screen. Such a screen would benefit from the known importance of Ca^2+ signaling in parasite biology along with the reported success rate of cell-based phenotypic assays. We designed a screen wherein extracellular GCaMP5-expressing parasites were pretreated with compounds for 10 min before stimulation with zaprinast, and parasite fluorescence was measured 4 min later. We expected that compounds that interfered with the zaprinast response would reduce fluorescence. We calculated a Z′-factor for this screen to determine its dynamic range and suitability to high throughput screening. To do so, we compared zaprinast-treated parasites to untreated parasites or those pretreated with the PKG inhibitor Compound 2 (Cpd2) ([55]). […] We obtained the compound libraries published kinase inhibitor sets PKIS1 ([57]) and PKIS2 (unpublished), from GlaxoSmithKline and applied our phenotypic screen to the 823 ATP mimetics represented in these collections (Fig. 2B and supplemental Table S1). The compounds were screened at a single 10 μM dose with two biological replicates.

Row | Compound | fold change in fluorescence relative to zaprinast alone | fold change in fluorescence relative to zaprinast alone (10 µM)
1 | Nc1ncnc2c1ncn2-c1ccc(Cl)cc1 [AH2635] | 1.022 | –
2 | c1ccc(-c2cnc3nccnn23)cc1 [AH20685XX] | 1.296 | –
3 | Fc1ccc(-c2nc3n(c2-c2ccncc2)CCS3)cc1 [GI98581X] | – | 0.7657 and 1.237
4 | COc1cc2ncnc(Nc3cccc(Br)c3)c2cc1OC [GI230329A] | 1.268 | –
5 | COc1ccc2ncnc(Nc3ccc(OCc4ccccc4)cc3)c2c1 [GI261520A] | 0.7394 | –
6 | COc1cc2ncnc(Nc3ccc(OCc4ccccc4Br)c(Cl)c3)c2cc1OC [GI261590A] | 1.09 | –
7 | COc1cc2nccc(Nc3ccc(Oc4ccccc4)cc3)c2cc1OC [GI261656A] | 0.5416 | –
8 | O=C1Nc2ccccc2C1=C1CCc2cc(O)ccc21 [GR105659X] | 1.22 | –
9 | c1ccc(Cc2nc3ccc(Nc4ncnc5ccccc45)cc3[nH]2)cc1 [GR269666A] | 1.257 | –
10 | Clc1cc(Cl)cc(Nc2ccnc(Nc3cc(Cl)cc(Cl)c3)n2)c1 [GSK175726A] | 0.5192 | –
11 | CC1=C(C(=O)Nc2ccc3[nH]ncc3c2)C(c2ccc(F)cc2)NC(=O)N1 (centres unmarked) [GSK180736A] | 0.8811 | –
12 | CN(C)C(=O)O[C@H]1CN[C@H](C#Cc2cc3ncnc(Nc4ccc(OCc5cccc(F)c5)c(Cl)c4)c3s2)C1 [GSK182497A] | 1.183 | –
13 | Cc1ccc(-c2nc(Nc3ccncc3)c3ccccc3n2)s1 [GSK189015A] | 0.1154 | –
14 | CCNC(=O)O[C@H]1CN[C@H](C#Cc2cc3ncnc(Nc4ccc(OCc5cccc(F)c5)c(Cl)c4)c3s2)C1 [GSK192082A] | 1.213 | –
15 | O=C(Nc1cccc(-c2nn3ncccc3c2-c2ccnc(Nc3ccccc3)n2)c1)c1c(F)cccc1F [GSK198271A] | 1.278 | –
16 | O=C(O[C@H]1CN[C@H](C#Cc2cc3ncnc(Nc4ccc5c(cnn5Cc5ccccc5)c4)c3s2)C1)N1CCOCC1 [GSK200398A] | 1.169 | –
17 | COc1cc2ncn(-c3cc(OCC4CCCCC4)c(C(N)=O)s3)c2cc1OC [GSK204559A] | 1.336 | –
18 | COc1cc2ncn(-c3cc(OCCc4ccccc4)c(C(N)=O)s3)c2cc1OC [GSK204925A] | 0.9795 | –
19 | COc1cc2c(Nc3cccc(NC(=O)c4ccccc4)c3)ncnc2cc1OCCCN1CCOCC1 [GSK223810A] | 1.471 | –
20 | COc1cc2ncn(-c3cc(O[C@@H](C)c4ccccc4Cl)c(C(N)=O)s3)c2cc1OC [GSK237700A] | 1.147 | –
21 | COc1cc2ncn(-c3cc(O[C@H](C)c4ccccc4Cl)c(C(N)=O)s3)c2cc1OC [GSK237701A] | 0.7907 | –
22 | CN(C)C(=O)O[C@@H]1CN[C@@H](C#Cc2cc3ncnc(Nc4ccc(OCc5cccc(F)c5)c(Cl)c4)c3s2)C1 [GSK238063A] | 1.133 | –

Row | Compound | fold change in fluorescence relative to zaprinast alone | fold change in fluorescence relative to zaprinast alone (10 µM)
23 | O=C(O[C@H]1CN[C@H](C#Cc2cc3ncnc(Nc4ccc(Cc5ccccc5)cc4)c3s2)C1)N1CCOCC1 [GSK238583A] | 1.249 | –
24 | Cc1cccc(-c2nc(C)cc(Nc3ccncc3)n2)n1 [GSK257997A] | 0.832 | –
25 | CCn1c(-c2nonc2N)nc2c(-c3ccccc3)ncc(OCCCN)c21 [GSK260205A] | – | 0.1513
26 | CCn1c(-c2nonc2N)nc2cnc(Oc3cccc(NC(=O)c4ccc(OCCN5CCOCC5)cc4)c3)cc21 [GSK269962B] | 1.303 | –
27 | CC1=C(C(=O)Nc2ccc3[nH]ncc3c2)C(c2ccc3ccccc3c2)CC(=O)N1 (centres unmarked) [GSK270822A] | 1.167 | –
28 | O=C(Nc1cccc(-c2nn3ccccc3c2-c2ccnc(Nc3cccc(C(F)(F)F)c3)n2)c1)c1c(F)cccc1F [GSK292658A] | 1.154 | –
29 | CC1=C(C(=O)Nc2ccc3[nH]ncc3c2)C(c2ccc(Cl)c(Cl)c2)CC(=O)N1 (centres unmarked) [GSK299115A] | 1.214 | –
30 | O=C(Nc1cccc(-c2nn3ncccc3c2-c2ccnc(Nc3cccc(C(F)(F)F)c3)n2)c1)c1c(F)cccc1F [GSK299495A] | 1.22 | –
31 | CS(=O)(=O)CCNCc1cc(-c2cc3c(Nc4ccc(OCc5cccc(F)c5)c(Cl)c4)ncnc3s2)cs1 [GSK300014A] | 1.033 | –
32 | NC(=O)c1cc(-c2ccccc2)cc2c(C3CCNCC3)c[nH]c12 [GSK301362A] | 1.06 | –
33 | O=S(=O)(c1cccc(F)c1)c1ccc(Nc2ncnc3cc(Br)sc23)cc1Cl [GSK306886A] | 1.114 | –
34 | O=C(Nc1cccc(-c2nn3ncccc3c2-c2ccnc(Nc3cccnc3)n2)c1)c1c(F)cccc1F [GSK312879A] | 1.048 | –
35 | COc1cc2ncn(-c3cc(OCc4cccs4)c(C(N)=O)s3)c2cc1OC [GSK312948A] | 1.205 | –
36 | COc1ccc2ncn(-c3cc(O[C@H](C)c4ccccc4C(F)(F)F)c(C(N)=O)s3)c2c1 [GSK317315A] | 0.7483 | –
37 | CC1=C(C(=O)Nc2ccc3[nH]ncc3c2)C(c2ccc(F)cc2)N=C(c2ccc(C(F)(F)F)nc2)N1 (centres unmarked) [GSK317354A] | 1.324 | –
38 | COc1cc2ncn(-c3cc(OCc4ccccc4S(C)(=O)=O)c(C#N)s3)c2cc1OC [GSK319347A] | 1.184 | –
39 | COc1cc(Nc2nccc(-c3c(-c4cccc(NC(=O)c5c(F)cccc5F)c4)nn4ccccc34)n2)cc(OC)c1OC [GSK323521A] | 1.412 | –
40 | CS(=O)(=O)Cc1ccc(Nc2nccc(-c3c(-c4cccc(NC(=O)c5c(F)cccc5F)c4)nn4ccccc34)n2)cc1 [GSK323543A] | 1.565 | –
41 | CCS(=O)(=O)c1ccc(OC)c(Nc2nccc(-c3c(-c4cccc(NC(=O)c5c(F)cccc5F)c4)nn4ncccc34)n2)c1 [GSK326180A] | 1.656 | –
42 | COc1cc(Nc2nccc(-c3c(-c4cccc(NC(=O)c5c(F)cccc5F)c4)nn4ncccc34)n2)cc(OC)c1OC [GSK327238A] | 1.28 | –
43 | NS(=O)(=O)CCc1cccc(Nc2nccc(-c3c(-c4cccc(NC(=O)c5c(F)cccc5F)c4)nn4ccccc34)n2)c1 [GSK336735A] | 1.201 | –
44 | O=C(Nc1cccc(-c2nn3ccccc3c2-c2ccnc(Nc3cccc(F)c3)n2)c1)c1c(F)ccc(F)c1Cl [GSK357952A] | 1.061 | –
